Experimental data reported in patent publication US12555809B2, “Additives for fluorenone/fluorenol based aqueous redox flow batteries” (Battelle Memorial Institute, priority 2021, dated 2026).

Experiments:
[1] = Battery current response test at controlled voltage; details: fully charged electrolyte, 0.9V controlled voltage discharge
Experimental: The battery of FIG. 13 was constructed similar to above described procedure, except that two consecutive cell stacks were employed (electrolyte flow through the two cells consecutively), one for charging and discharging, one for OCV monitoring. The battery in FIG. 18 was constructed using one cell stack, with additional pump and tubing system circulating ˜3 mL electrolyte through EPR detecting tube at 100 rpm rate. Anolyte was comprised of 12 mL 0.1 M 274FL/1 M NaOH with specified additive at 0.086 M. Catholyte was comprised of 500 mL 0.1 M ferrocyanide/0.05 M ferricyanide/1 M NaOH. Electrolyte was charged until desired SOC reached. Then the discharge current response was measured at controlled voltage of 0.9V. Each measurement was repeated 5 cycles (FIG. 13) and experiments were repeated two times in FIG. 18.

[2] = Small-angle X-ray scattering (SAXS) cluster size; format: physicochemical; details: for Diameter: SAXS
Text: Small-angle X-ray scattering: Synchrotron SAXS technique is a powerful technique to measure the size of dissolved molecules, clusters, and suspended particles. SAXS resolves the particle size and shape over a wide range of sizes from several Å to hundreds of nm. Considering the small sizes and low electron contrast of β-CD, FL and FLOH relative to solution, there was a focus on collecting data from a scattering vector, q, of 0.05 to 2 Å-1. Small-angle X-ray scattering (SAXS) data was acquired at beamline 12-ID-B of the APS. A constant incident photon energy of 13.3 keV (λ=0.9322 Å) was used to measure samples in transmission through a 2-mm ID silica capillary (Charles Supper SiO2 capillaries, 10 μm wall thickness). Sample-to-detector distance was calibrated using a silver behenate standard. 2D images were recorded using a Pilatus 2M detector (Dectris; pixel size 172×172 μm^2) for five frames at a 1 s exposure time each. Artifacts from static noise were subtracted using detector dark images, which were acquired every ten frames. Solution blanks were acquired identical to the suspension samples and subtracted using a scaling factor of 1. The RAW program from the BioXTAS package was used, as well as SasView and Irena, to integrate the data, average and merge scans, perform background subtractions, and to calculate pair distance distribution functions (PDDF).

[3] = PFG NMR diffusion coefficients (1H, 23Na); format: physicochemical; details: for D(Na^+): 23Na PFG NMR at 25° C.
Experimental: Nuclear magnetic resonance spectroscopy: NMR spectra were either collected on a 500 MHz Oxford NMR spectrometer at 25° C. (the system consists of an Oxford AS500 magnet connected to an Agilent Technologies console), or collected on a 400 MHz NMR spectrometer (Bruker 400 MHz Avance III NMR with NanoBay console, equipped with a SampleCase™ autosampler using IconNMR automation. Probe: BBFO 5 mm SmartProbe sensor). Chemical shifts were reported in ppm with the solvent resonance as the internal standard (DMSO, δ=2.50; D2O, δ=4.70; CDCl3, δ=7.26).

[4] = pKa of additive / proton acceptor (H—B) and deprotonation of β-CD in alkaline solution; format: physicochemical; details: 0.1 M β-CD added to 1 M NaOH
Text: β-(Cyclodextrin)CD was selected as model compound. Not only benefiting from the cavity containing poly-hydroxyl structure, but it also has a pKa at around 13.5, which is similar to the pKa of functionalized fluorenol, rendering a potentially strong H-bonding structure. Based on past studies (Gaidamauskas et al., Carbohydrate Research 2009, 344:250-254) and measurement of β-CD behavior in alkaline solution, this supermolecule experiences two-fold of deprotonation in 1 M NaOH. […] From a battery operation point, β-CD is notable for its redox-inert character and large molecular size, which leaves no concern of crossover and loss of catalyst. From a practical application point, the low-cost and non-toxic merit warrants feasible implementation.

[5] = H-cell oxidation rate measurement (chronocoulometry)
Experimental: The measurement was conducted with H-cell equipped with Hg/HgO as reference electrode and Glassy carbon electrode as working electrode (0.0707 cm^2). Carbon rod was used as counter electrode. Stir bar was equipped to facilitate mass transfer, so it is not considered as a limiting factor in the measurement of oxidation process. Chronocoulometry method was applied at specified potential for 120 s with IR compensation (CI mode on Gamry) and 1.5 s per data point. Nafion® 212 (soaked in 1 M NaOH at room temperature) was used as separator. Each data point was repeated three times. The electrolyte solution was prepared using the battery charging to specified SOC. The battery was constructed with 8 mL of 0.3 M 274FL/1 eqNaOH/1 M NaOH and 30 mL of 0.3 M potassium ferrocyanide/0.3 M potassium ferricyanide/1 M NaOH. After charged to specified SOC, the anolyte solution was diluted with 1 M NaOH to result a 15 mM active material solution. The catholyte was diluted with 1 M NaOH to result an 8.75 mM potassium ferrocyanide/28.75 mM potassium ferricyanide solution. The solution used for H-cell measurement in each compartment was 5 mL, with addition of specified amount of additive. To prepare deuterated fluorenol, the cell was constructed using NaOD/D2O for both anolyte and catholyte.
Due to well stirred solution and only 120 s measurement with small electrode area, mass transfer and SOC change influence can be considered as neglectable. Thus, a linear relationship was obtained (A condition where neglectable oxidizable material concentration change during testing period). The slope represents an oxidation rate (C/s, average current, unit A) for the solution oxidizable species during that testing period.
A heterogeneous reaction oxidation rate constant (cm/s) at a specified overpotential was calculated based on a pseudo first order reaction model (Hammerich et al., Organic electrochemistry:revised and expanded 2015, CRC Press; Markle et al., Science Advances 2018, 4: eaat5776):
[formula] here “i” unit is A(C/s), A is 0.0707 cm^2. […]

[6] = EPR of comproportionation mixture (FLOH + FL); details: 0.001 M FLOH and 0.001 M FL 1:1, 0.001 M β-CD, 20 min after mixing
Experimental: Electron paramagnetic resonance spectroscopy: EPR measurements were performed on a Bruker ELEXSYS E580 spectrometer at 298 K. The electrolyte solution sample was pulled into a glass capillary (VitroTubes™, ID 0.8 mm and OD 1 mm) using a Hamilton syringe connected through nanotight fittings from Valco Instruments Co. Inc. The capillary was sealed using Critoseal™ Leica Microsystems capillary tube sealant on both ends and was further placed inside a 4 mm EPR tube with the open end sealed inside a glove box filled with nitrogen. All samples were prepared inside the glove box immediately before EPR experiments to minimize the influence of air and moisture. The typical settings for the spectra were microwave frequency=9.324 GHz, sweep time=41.94 s, time constant=5.12 ms, power=0.02 mW, field modulation amplitude=0.05 G, and sweep width=24 G for dilute solutions in order to capture the detailed hyperfine structures but the sweep width was increased to 50 G for relatively concentrated solutions to incorporate their broader line widths. Absolute spin concentrations of the samples were determined by calibration curves of the spin standard TEMPO (2,2,6,6-tetramethyl-1-piperidinyloxyl) with concentrations varying from 0.01 mM to 100 mM, and another spin standard 4-Hydroxy-TEMPO with concentrations varying from 0.1 M to 1.0 M.

[7] = cited from earlier work; for H—B pKa: conjugate acid of B^-
[8] = Rotating disk electrode (RDE) study; format: physicochemical; details: 27S4CFL (5 mM) in 0.1 M β-CD/1 M NaOH
Experimental: Rotating disk electrode (RDE) measurements (Feng et al., Science 2021, 372:836) were performed using a three-electrode configuration consisting of a glassy carbon working electrode (3 mm diameter), a carbon rod counter electrode and an Ag/AgCl reference electrode. The electrolytes of 5 mM redox-active materials in 1.0 M NaOH were used. Data were collected using a CHI potentiostat at scan rates of 5 mV/s in the potential range of −1.55V˜−0.5V vs Ag/AgCl. The rotation rates were at 300, 600, 900, 1200, 1500, 1800, 2100 and 2400 rpm. […] The Koutecky-Levich plots at different overpotentials were extrapolated to get the kinetic current ik according to the Koutecky-Levich equation:
[formula] The exchange current i0 can be obtained by fitting ik to the Tafel plot at the overpotential of zero, from which the reaction rate constant (k0) was determined according to Butler-Volmer equation: i0=nFACk0 Flow Battery Tests

[9] = Solubility measurement (saturated solution concentration by NMR); format: physicochemical; details: with less than 0.1 M β-CD added
Experimental: A general procedure was applied following below steps. First a supernatant was prepared by mixing solute and solvent with heating, stirring, and centrifugation. The resulting cooled mixture was filtered through 0.2 μm PP membrane filter. The saturated solution concentration was determined by NMR. NMR sample was prepared with mixing 100 μL of saturated solution, 50 μL of internal standard solution (1 M sodium methane sulfonate) and 950 μL D2O.

[10] = ratio of diffusion coefficients

| SMILES | Diameter [2] | D(H2O) ([3]; 1H PFG NMR at 25° C.) | D(Na^+) [3] | D(Na^+)/D(H2O) [3, 10] | H—B pKa [7] | D(FLOH or FL) ([3]; 1H PFG NMR at 25° C.) | D(FLOH or FL)/D(H2O) [3, 10] | also measured |
| --- | --- | --- | --- | --- | --- | --- | --- | --- |
| OC[C@H]1O[C@@H]2O[C@H]3[C@H](O)[C@@H](O)[C@@H](O[C@H]4[C@H](O)[C@@H](O)[C@@H](O[C@H]5[C@H](O)[C@@H](O)[C@@H](O[C@H]6[C@H](O)[C@@H](O)[C@@H](O[C@H]7[C@H](O)[C@@H](O)[C@@H](O[C@H]8[C@H](O)[C@@H](O)[C@@H](O[C@H]1[C@H](O)[C@H]2O)O[C@@H]8CO)O[C@@H]7CO)O[C@@H]6CO)O[C@@H]5CO)O[C@@H]4CO)O[C@@H]3CO [β-CD, β-cyclodextrin] | 11.76 ± 3.94 Å Å | 13.1 ×10^−10 m^2/s | 8.12 ×10^−10 m^2/s | 0.62 |  |  |  | peak current density relative to blank [1]: 1.6 times; height of the cup ([2]; SAXS RDFs): ~4 Å; width of the cup ([2]; SAXS RDFs): ~12 Å; D(β-CD) ([3]; 1H PFG NMR at 25° C.): 1.57 ×10^−10 m^2/s; D(β-CD)/D(H2O) [3, 10]: 0.12; hydroxide consumption corresponding to pH decrease [4]: 0.184 M; increment of fluorenol oxidation ([5]; H-cell, −0.65V vs Hg/HgO): 1.6 times; KIE value ([5]; applied potential of −0.65V vs Hg/HgO): 2.42; deuterated fluorenol oxidation rate enhancement ([5]; deuterated fluorenol): 1.4 times; reduction of radical concentration estimated from EPR peak intensity [6]: 60%; pKa [7]: around 13.5 |
| Oc1ccc(O)cc1 |  |  |  |  | 9.7 |  |  |  |
| O=C(O)c1cc(S(=O)(=O)O)cc2c1-c1ccc(S(=O)(=O)O)cc1C2=O [27S4CFL, 2,7-sulfonate-4-carboxylate fluorenone] | 16.48 ± 0.21 Å Å | 12.1 ×10^−10 m^2/s | 7.60 ×10^−10 m^2/s | 0.63 |  | 1.92 ×10^−10 m^2/s | 0.16 | calculated diffusion coefficient [8]: 7.56×10^−6 cm^2/s; calculated kinetic reduction rate constant for the first electron [8]: 0.00351 cm/s |
| O=C(O)c1cc(S(=O)(=O)O)cc2c1-c1ccc(S(=O)(=O)O)cc1C2O (centres unmarked) [FLOH, 2,7-sulfonate-4-carboxylate fluorenol] | 12.32 ± 1.84 Å Å | 13.6 ×10^−10 m^2/s | 6.72 ×10^−10 m^2/s | 0.49 |  | 2.45 ×10^−10 m^2/s | 0.18 | D(FLOH - H6) ([3]; 1H PFG NMR at 25° C.): 2.43 ×10^−10 m^2/s |
| OCC(F)(F)F [CF3CH2O] |  |  |  |  | 11.4-12.4 |  |  |  |
| O=C(O)c1cccc2c1-c1ccc(S(=O)(=O)[O-])cc1C2=O.[K+] [4C7SFL, 4-carboxylate-7-sulfonate fluorenone/fluorenol] |  |  |  |  |  |  |  | solubility ([9]; aqueous with cosolvent or surfactant or cyclodextrin, thermodynamic from solid, read-out: measured solubility): ~1900 mM; solubility increase compared with solubility without β-CD [9]: ~30%; volumetric capacity corresponding to solubility [9]: 101.8 Ah/L |
